# According to patent US20220016099A1, “BENZIMIDAZOLE OR BENZOXAZOLE DERIVATIVES FOR PREVENTING AND TREATING CENTRAL NERVOUS SYSTEM DISEASE, DIABETES, AND COMPLICATIONS THEREOF” (TRINUERO, priority 2018, published 2022):
# System: Nrf2
# Experiment: Nrf2 activity by A549-ARE luciferase assay
# Assay type: cell-based
# Conditions: A549-ARE cell line, 10 μM of each compound in DMSO; Nrf2 activity (%) of compound relative to DMSO using luciferase assay; read-out: Nrf2 activity
# Description: Example 1: Method for Measuring Nrf2 Activity of Benzimidazole or Benzoxazole Derivatives Using A549-ARE Luciferase Assay
# An assay for Nrf2 activity was performed by modification of the method reported in Ilse M. Beck et al., (2013), European Journal of Pharmacology 715. 1-9.
# Specifically, A549-ARE cell line was dispensed into a 96-well plate, and then subjected to treatment with a solution obtained by dissolving 10 μM of each compound in Table 2 in dimethyl sulfoxide (DMSO). On the other hand, Compounds 1 and 13 as shown in Table 2 were obtained from Sigma-Aldrich (US); Compounds 2, 5, 8, 9 12, 15, 18 to 20, 23, 25, 30, and 32 were obtained from Tokyo Chemical Industry Co., Ltd. (JP); Compound 3 was obtained from Labseeker (CN); Compound 4 was obtained from BOC Science (US); Compounds 6 and 7 were obtained from Cambridge (US); Compounds 10, 11, 16, 17, 21, and 22 were obtained from Toronto Research Chemicals (CA); Compound 14 was obtained from Selleckchem (US); Compounds 24, 26, 27, and 31 were obtained from BLD Pharm (CN); Compounds 28 and 33 were obtained from Mcule (US); Compound 29 was obtained from Chemshuttle (US); and Compound 34 was obtained from Alinda (RU).
# Thereafter, the 96-well plate was treated with 30 μl of luciferase lysis buffer (90.8 mM K2HPO4, 9.2 mM KH2PO4, 0.1% Triton X-100), and then incubated for 30 minutes or longer so that cell lysis proceeded. The incubated cell lysate was transferred to another 96-well plate (white plate), and then each well was treated with 100 μl of luciferase buffer mixture (20 mM Tricine, 1.07 mM [(MgCO3)4Mg(OH)2.5H2O], 2.67 mM [MgSO4.7H2O], 0.1 mM EDTA, 33.3 mM DTT, 270 μM coenzyme A [CoA], 500 μM D-luciferin, 530 μM ATP). Immediately after the treatment, […] was performed to check Nrf2 activity.
row,SMILES,activity at 10 µM
1,"COc1ccc2[nH]c([S+]([O-])Cc3ncc(C)c(OC)c3C)nc2c1 (stereo not drawn) [Compound 1, omeprazole, reference compound]",0 to 30%
2,"COc1ccc2[nH]c(SCc3ncc(C)c(OC)c3C)nc2c1 [Compound 2, omeprazole sulfide]",0 to 30%
3,"COc1ccc2[nH]c(S(=O)(=O)Cc3ncc(C)c(OC)c3C)nc2c1 [Compound 3, omeprazole sulfone]",0 to 30%
4,"COc1ccc2[nH]c([S+]([O-])Cc3c(C)c(OC)c(C)c[n+]3[O-])nc2c1 (stereo not drawn) [Compound 4, omeprazole N-oxide]",0 to 30%
5,"COc1ccc2[nH]c(S)nc2c1 [Compound 5, 5-methoxy-2-benzimidazolethiol]",30 to 70%
6,"COc1ccc2c(c1)nc(S)n2C [Compound 6, 5-methoxy-1-methyl-1H-benzimidazole-2-thiol]",30 to 70%
7,"COc1ccc2[nH]c(SC)nc2c1 [Compound 7, 5-methoxy-2-(methylthio)-1H-benzimidazole]",0 to 30%
8,"Cc1c(OCC(F)(F)F)ccnc1C[S+]([O-])c1nc2ccccc2[nH]1 (stereo not drawn) [Compound 8, lansoprazole, reference compound]",> 100%
9,"Cc1c(OCC(F)(F)F)ccnc1CSc1nc2ccccc2[nH]1 [Compound 9, lansoprazole sulfide]",70 to 100%
10,"Cc1c(OCC(F)(F)F)ccnc1CS(=O)(=O)c1nc2ccccc2[nH]1 [Compound 10, lansoprazole sulfone]",0 to 30%
11,"Cc1c(OCC(F)(F)F)cc[n+]([O-])c1C[S+]([O-])c1nc2ccccc2[nH]1 (stereo not drawn) [Compound 11, lansoprazole N-oxide]",70 to 100%
12,"Cn1c(S)nc2ccccc21 [Compound 13, 1-methyl-1H-benzimidazole-2-thiol]",0 to 30%
13,"COc1ccnc(C[S+]([O-])c2nc3cc(OC(F)F)ccc3[nH]2)c1OC (stereo not drawn) [Compound 14, pantoprazole, reference compound]",70 to 100%
14,"COc1ccnc(CSc2nc3cc(OC(F)F)ccc3[nH]2)c1OC [Compound 15, pantoprazole sulfide]",0 to 30%
15,"COc1ccnc(CS(=O)(=O)c2nc3cc(OC(F)F)ccc3[nH]2)c1OC [Compound 16, pantoprazole sulfone]",0 to 30%
16,"COc1cc[n+]([O-])c(C[S+]([O-])c2nc3cc(OC(F)F)ccc3[nH]2)c1OC (stereo not drawn) [Compound 17, pantoprazole N-oxide]",70 to 100%

row,SMILES,activity at 10 µM
1,"FC(F)Oc1ccc2nc(S)[nH]c2c1 [Compound 18, 5-difluoromethoxy-2-mercaptobenzimidazole]",0 to 30%
2,"COCCCOc1ccnc(C[S+]([O-])c2nc3ccccc3[nH]2)c1C (stereo not drawn) [Compound 19, rabeprazole, reference compound]",> 100%
3,"COCCCOc1ccnc(CSc2nc3ccccc3[nH]2)c1C [Compound 20, rabeprazole sulfide]",> 100%
4,"COCCCOc1ccnc(CS(=O)(=O)c2nc3ccccc3[nH]2)c1C [Compound 21, rabeprazole sulfone]",0 to 30%
5,"COCCCOc1cc[n+]([O-])c(C[S+]([O-])c2nc3ccccc3[nH]2)c1C (stereo not drawn) [Compound 22, rabeprazole N-oxide]",70 to 100%
6,"Cc1cccc2[nH]c(=S)[nH]c12 [Compound 24, 4-methyl-1H-benzimidazole-2-thiol]",0 to 30%
7,"O=S(=O)(O)c1ccc2[nH]c(=S)[nH]c2c1 [Compound 25, 2-sulfanyl-1H-benzimidazole-5-sulfonic acid]",0 to 30%
8,"O=c1[nH]c2ccc(Cl)cc2[nH]1 [Compound 26, 5-chloro-1,3-dihydrobenzimidazol-2-one]",0 to 30%
9,"O=C1Cc2cc(O)ccc2N1 [Compound 27, 5-hydroxyindolin-2-one]",0 to 30%
10,"O=c1[nH]c2c(Cl)c(Cl)c(Cl)cc2o1 [Compound 28, 4,5,6-trichloro-3H-a,3-benzoxazol-2-one]",0 to 30%
11,"COc1ccc2[nH]c(=O)oc2c1 [Compound 29, 6-methoxybenzo[d]oxazol-2(3H)-one]",30 to 70%
12,"O=[N+]([O-])c1ccc2[nH]c(=S)[nH]c2c1 [Compound 30, 2-mercapto-5-nitrobenzimidazole]",0 to 30%
13,"O=c1[nH]c2cc(Cl)c(O)cc2o1 [Compound 31, 6-hydroxychlorzoxazone]",0 to 30%
14,"S=c1[nH]c2ccc(Cl)cc2[nH]1 [Compound 32, 5-chloro-2-mercaptobenzimidazole]",70 to 100%
15,"S=c1[nH]c2cc3ccccc3cc2[nH]1 [Compound 33, 1,3-dihydrobenzo[f]benzimidazole-2-thione]",0 to 30%
16,"COc1cc2nc(S)[nH]c2cc1OC [Compound 34, 5,6-dimethoxy-1H-benzo[d]imidazol-2-thiol]",0 to 30%

# Same assay, conditions: read-out: Nrf2 activity
row,SMILES,activity at 10 µM
1,"Sc1nc2ccccc2[nH]1 [Compound 12, 2-mercaptobenzimidazole]",0 to 30%
